Reference: patent US9328374B2, “Selective culture medium and method for detecting carbapenem-resistant bacteria in a test sample” (Institut National de la Sante et de la Recherche Medicale …, priority 2011, dated 2016)
“And” between values parts separate entries of the source, which are not always exact repeats. Equal entries are not always repeated.

Tests used:
Experiment in all cases: MIC of imipenem, ertapenem and meropenem
E. coli = format: cell-based, Escherichia coli
P. mirabilis = format: cell-based
P. stuartii = format: cell-based, Providencia stuartii
E. aerogenes = format: cell-based, Enterobacter aerogenes

Measured: MIC

C[C@@H](O)[C@H]1C(=O)N2C(C(=O)O)=C(S[C@@H]3CN[C@H](C(=O)N(C)C)C3)[C@H](C)[C@H]12 [MEM, meropenem]
0.25 mg/L: E. coli; E. coli GOG (OXA-48 + CTX-M-24) | E. coli; E. coli HB4 (OmpC-, OmpF-) | E. coli; E. coli HB4, (OmpC-, OmpF-), non-carbapenemase producer, porin deficiency | E. coli; E. coli NAA (OXA-48 + CTX-M-24) | E. coli; E. coli OM22, OXA-48 + TEM-1 + CTX-M-15 | E. coli; E. coli ROB (OXA-48) | E. coli; E. coli ROB, OXA-48 | E. coli; strain E. coli HB4, (OmpC-, OmpF-), non-carbapenemase producer | E. coli; strain E. coli ROB, OXA-48
0.016 mg/L: E. coli; strain E. coli 1008, TEM-1 + CTX-M-1, non-carbapenemase producer | E. coli; strain E. coli 1034, TEM-1 + SHV-38, non-carbapenemase producer | E. coli; strain E. coli 1048, TEM-1 + SHV-2a, non-carbapenemase producer | E. coli; strain E. coli 10121, CTX-M-2, non-carbapenemase producer | E. aerogenes; E. aerogenes 1009, TEM-24, non-carbapenemase producer
8 mg/L: E. coli; E. coli ALL (NDM-1 + OXA-1 + OXA-2 + CTX-M-15 + TEM-1) | E. coli; E. coli ALL, NDM-1 + TEM-1 + CTX-M-15 + OXA-1 + OXA-2 | E. coli; E. coli OM20, NDM-1 + TEM-1 + CTX-M-15
0.032 mg/L: P. mirabilis; P. mirabilis 1031 (CTX-M-14 + TEM-1 + SHV-11) | P. mirabilis; P. mirabilis 1031, CTX-M-14 + TEM-1 + SHV-11, non-carbapenemase producer
0.19 mg/L: E. coli; E. coli AME (OXA-48 + CTX-M-24) | E. coli; E. coli AME, OXA-48 + CTX-M-24 | E. coli; E. coli BER (OXA-48 + CTX-M-15) | E. coli; E. coli BER, OXA-48 + TEM-1 + CTX-M-15 | E. coli; E. coli BOK (OXA-48 + CTX-M-15) | E. coli; E. coli BOK, OXA-48 + CTX-M-15 | E. coli; E. coli BON (OXA-48 + CTX-M-24 + TEM-1) | E. coli; E. coli BON, OXA-48 + TEM-1 + CTX-M-24 | E. coli; strain E. coli AME, OXA-48 + CTX-M-24 | E. coli; strain E. coli BON, OXA-48 + TEM-1 + CTX-M-24
12 mg/L: E. coli; E. coli GEN (NDM-1 + OXA-1 + CMY-30 + TEM-1) | E. coli; E. coli GEN, NDM-1 + TEM-1 + CMY-30 + OXA-1
2 mg/L: E. coli; E. coli COL (KPC-2) | E. coli; E. coli COL, KPC-2 + TEM-1 + CTX-M-9 | E. coli; E. coli GUE (NDM-1 + OXA-1 + TEM-1) | E. coli; E. coli GUE, NDM-1 + TEM-1 + OXA-1 | E. coli; E. coli MAR (Overexpressed AmpC) | E. coli; E. coli MAR, Overexpressed AmpC, non-carbapenemase producer | E. coli; strain E. coli MAR, Overexpressed AmpC, non-carbapenemase producer
0.12 mg/L: E. coli; E. coli E14 (CTX-M-14)
0.125 mg/L: E. coli; E. coli BOU (OXA-48 + CTX-M-15) | E. coli; E. coli BOU, OXA-48 + CTX-M-15
0.38 mg/L: E. coli; E. coli OM3, OXA-48 + TEM-1 + CTX-M-15
4 mg/L: E. coli; E. coli DIH (VIM-19) | E. coli; E. coli DIH, VIM-19
0.012 mg/L: E. coli; E. coli E14, CTX-M-14, non-carbapenemase producer | E. coli; E. coli ECA, ACC-1, non-carbapenemase producer | E. coli; E. coli EVB, VEB-1, non-carbapenemase producer | E. coli; E. coli FOR, CTX-M-15, non-carbapenemase producer | E. coli; E. coli MET, Chromosome-encoded extended-spectrum cephalosporinase, non-carbapenemase producer | E. coli; E. coli SYD, CMY-2, non-carbapenemase producer | E. coli; strain E. coli ECA, ACC-1, non-carbapenemase producer | E. coli; strain E. coli EVB, VEB-1, non-carbapenemase producer | E. coli; strain E. coli FOR, CTX-M-15, non-carbapenemase producer | E. coli; strain E. coli MET, Chromosome-encoded extended-spectrum cephalosporinase, non-carbapenemase producer | E. coli; strain E. coli SYD, CMY-2, non-carbapenemase producer
1 mg/L: E. coli; E. coli 1108013, IMP-1 + TEM-1 | E. coli; E. coli HAN (OXA-48 + CTX-M-15) | E. coli; E. coli HAN, OXA-48 + CTX-M-15 | E. coli; E. coli LIL, KPC-2 + TEM-1 + OXA-9 | E. coli; E. coli RIC (NDM-1 + OXA-1 + OXA-10 + CMY-16) | E. coli; E. coli RIC, NDM-1 + CMY-16 + OXA-1 + OXA-10
0.064 mg/L: P. mirabilis; P. mirabilis PMA, ACC-1, non-carbapenemase producer
0.75 mg/L: E. coli; E. coli ZAN, OXA-48 + TEM-1 + CTX-M-14
1.5 mg/L: P. stuartii; P. stuartii NDM (NDM-1 + OXA-1 + CMY-6) | P. stuartii; P. stuartii PS1 (NDM-1 + CMY-6 + OXA-1) | P. stuartii; P. stuartii PS1, NDM-1 + CMY-6 + OXA-1 | P. stuartii; strain P. stuartii PS1, NDM-1 + CMY-6 + OXA-1
3 mg/L: E. coli; E. coli TWA, IMP-8 + SHV-12
16 mg/L: E. coli; E. coli AUS (NDM-1 + CTX-M-15 + TEM-1) | E. coli; E. coli AUS, NDM-1 + TEM-1 + CTX-M-15 | E. coli; E. coli IR5 (NDM-1 + CTX-M-15 + TEM-1) | E. coli; E. coli IR5, NDM-1 + TEM-1 + CTX-M-15
0.12 mg/L and 0.064 mg/L: P. mirabilis; P. mirabilis PMA (ACC-1)
0.023 mg/L: E. aerogenes; E. aerogenes 1085 (TEM-24) | E. aerogenes; E. aerogenes 1085, TEM-24, non-carbapenemase producer | E. aerogenes; strain E. aerogenes 1085, TEM-24, non-carbapenemase producer
0.5 mg/L: E. coli; E. coli DIN, KPC-2 + TEM-1 + OXA-1 | E. coli; E. coli JAP (IMP-1) | E. coli; E. coli JAP, IMP-1 | E. coli; E. coli MAD (VIM-1 + CTX-M-3) | E. coli; E. coli MAD, VIM-1+ CTX-M-3 | E. coli; E. coli PSP (KPC-2) | E. coli; E. coli PSP, KPC-2 + TEM-1 + OXA-1 | E. coli; strain E. coli JAP, IMP-1
